Patent US12667551B2, “Renal function maintenance and protection agent, and method for evaluating effect thereof” (MARUHA NICHIRO CORPORATION, priority 2018, dated 2026)
Marks after values point to notes of the source that are not given here.

Assays:
[1] = system: diabetic disease model animals; settings: Non-Patent Document 4; cited from earlier work
[2] = system: spontaneously hypertensive stroke-prone rats (SHR-SP/Izm); assay: Urine metabolite analysis by NMR (Example 3); type: in vivo, rat; settings: for Urine metabolic concentration: 4-Hydroxyphenylacetate / Urine metabolic concentration: Glycine / Urine metabolic concentration: N-Phenylacetylglycine / Urine metabolic concentration: Creatinine: Example 3, H-DHA-TG 2,000, DHA-EE 1,303, Tri-DHA-TG 1,246 mg/kg, 4 weeks; for Urine metabolic concentration: Creatinine: normaliser
Procedure: (§1) Spontaneously hypertensive stroke-prone rats (SHR-SP/Izm, Nihon SLC Co., Ltd.) aged 4 weeks were acclimatized for 1 week, then fed an 8-mass % salt-containing solid diet (AlN-93G) and a drinking water freely, and once a day, DHA highly enriched triglycerides (H-DHA-TG), esters (DHA-EE) used in Example 2, and triglycerides (Tri-DHA-TG) prepared in Example 2 were administered by gavage with the amounts shown in Table 3,
(§2) In addition, urine samples were collected before the start of administration and after 4 weeks of administration under fasting for 16 hours, and biochemical tests and metabolite analysis by NMR were performed by conventional methods.

[3] = system: spontaneously hypertensive stroke-prone rats (SHR-SP/Izm); assay: Serum and urine biochemical tests, comparison of DHA-bound TG and EE (Example 3); type: in vivo, rat; settings: H-DHA-TG 2,000, DHA-EE 1,303, Tri-DHA-TG 1,246 mg/kg once a day gavage, 4 weeks; for Urine Alb / Urine Alb/CRE / Urine TP: median
Procedure: as §1, §2
At the end of the test, blood was collected from the abdominal vena cava and necropsied.
Biochemical metabolite analysis was performed on the obtained serum by conventional methods.

[4] = system: spontaneously hypertensive stroke-prone rats (SHR-SP/Izm); assay: Kidney pathology scores GSI and AIS (Example 3); type: in vivo, rat; settings: H-DHA-TG 2,000, DHA-EE 1,303, Tri-DHA-TG 1,246 mg/kg once a day gavage, 4 weeks, group average
Procedure: as §1
The kidneys were fixed in formalin solution, and then each staining was performed by PAS-staining, Sirius-Red-staining, and immunostaining for α-SMA, CD68, Desmin, and Kim−1 for pathological observations.
For PAS-staining, along with pathomorphological observations, glomerulosclerosis score (GSI), renal artery injury score (AIS) were performed with reference to Clinical and Experimental Hypertension, 2012, 34 (2) 99-106.

[5] = system: salt-sensitive spontaneously hypertensive stroke-prone rats; settings: Non-Patent Documents 1 and 2; cited from earlier work

Molecule	Blood glucose levels [1]	Significant differences of urine metabolites vs control, triglycerides compared with esters ([2]; Example 3, Table 6)	Urine metabolic concentration: 4-Hydroxyphenylacetate [2]	Urine metabolic concentration: Glycine [2]	Urine metabolic concentration: N-Phenylacetylglycine [2]	Urine metabolic concentration: Creatinine [2]	Serum BUN [3]	Serum CRE [3]	Urine CRE [3]	Urine Alb [3]	Urine Alb/CRE [3]	Urine TP [3]	AIS (renal artery injury score) [4]	GSI (glomerulosclerosis score) [4]	Renal function protection [5]
triglycerides of EPA [EPA-TAG]	no effect was observed														
CC/C=C\C/C=C\C/C=C\C/C=C\C/C=C\C/C=C\CCC(=O)OCC(COC(=O)CC/C=C\C/C=C\C/C=C\C/C=C\C/C=C\C/C=C\CC)OC(=O)CC/C=C\C/C=C\C/C=C\C/C=C\C/C=C\C/C=C\CC [Tri-DHA-TG, tridocosahexaenoyl triglyceride]		more significant differences	0.12 ± 0.04 (μM)/Cre(μM)	0.19 ± 0.03 (μM)/Cre(μM)	0.42 ± 0.08 (μM)/Cre(μM)	1.00 ± 0.00 (μM)/Cre(μM)	25.1 ± 4.2 mg/dL	0.28 ± 0.06 mg/dL	3.02 ± 0.47 mg/16 h	544.95^† ug/16 h	1.85^†	3.2^† mg/16 h	21.1	11.4	
CC/C=C\C/C=C\C/C=C\C/C=C\C/C=C\CCCC(=O)OCC [EPA-EE, ethyl esters of eicosapentaenoic acid]	no effect was observed														renal function was protected
CC/C=C\C/C=C\C/C=C\C/C=C\C/C=C\C/C=C\CCC(=O)OCC [DHA-EE, ethyl esters of docosahexaenoic acid]	lowered blood glucose levels to the same extent as control		0.09 ± 0.03 (μM)/Cre(μM)	0.18 ± 0.04 (μM)/Cre(μM)	0.34 ± 0.09 (μM)/Cre(μM)	1.00 ± 0.00 (μM)/Cre(μM)	25.1 ± 3.7 mg/dL	0.28 ± 0.04 mg/dL	3.23 ± 0.59 mg/16 h	1054 ug/16 h	4.44^†	3.2 mg/16 h	19.4	7.1	renal function was protected
triglycerides of DHA [DHA-TAG]	lowered blood glucose levels to the same extent as control														
